Results: patent US9527840B2, “Substituted-quinoxaline-type piperidine compounds and the uses thereof” (priority 2007, dated 2016)

What was measured:
kappa opioid receptor = kappa opioid receptor (Homo sapiens, UniProt P41145); experiment: In vitro kappa-opioid receptor functional assay ([35S]GTPγS); format: biochemical
hERG channel = target: T1, hERG channel (Homo sapiens, UniProt Q12809); experiment: In vitro hERG (human ether a-go-go gene) assay; format: cell-based
T1 construct: expressed in transfected cells

[1] = rat, in vivo
[2] = system: guinea pig purkinje fibers

T1 sequence (Q12809 whole entry): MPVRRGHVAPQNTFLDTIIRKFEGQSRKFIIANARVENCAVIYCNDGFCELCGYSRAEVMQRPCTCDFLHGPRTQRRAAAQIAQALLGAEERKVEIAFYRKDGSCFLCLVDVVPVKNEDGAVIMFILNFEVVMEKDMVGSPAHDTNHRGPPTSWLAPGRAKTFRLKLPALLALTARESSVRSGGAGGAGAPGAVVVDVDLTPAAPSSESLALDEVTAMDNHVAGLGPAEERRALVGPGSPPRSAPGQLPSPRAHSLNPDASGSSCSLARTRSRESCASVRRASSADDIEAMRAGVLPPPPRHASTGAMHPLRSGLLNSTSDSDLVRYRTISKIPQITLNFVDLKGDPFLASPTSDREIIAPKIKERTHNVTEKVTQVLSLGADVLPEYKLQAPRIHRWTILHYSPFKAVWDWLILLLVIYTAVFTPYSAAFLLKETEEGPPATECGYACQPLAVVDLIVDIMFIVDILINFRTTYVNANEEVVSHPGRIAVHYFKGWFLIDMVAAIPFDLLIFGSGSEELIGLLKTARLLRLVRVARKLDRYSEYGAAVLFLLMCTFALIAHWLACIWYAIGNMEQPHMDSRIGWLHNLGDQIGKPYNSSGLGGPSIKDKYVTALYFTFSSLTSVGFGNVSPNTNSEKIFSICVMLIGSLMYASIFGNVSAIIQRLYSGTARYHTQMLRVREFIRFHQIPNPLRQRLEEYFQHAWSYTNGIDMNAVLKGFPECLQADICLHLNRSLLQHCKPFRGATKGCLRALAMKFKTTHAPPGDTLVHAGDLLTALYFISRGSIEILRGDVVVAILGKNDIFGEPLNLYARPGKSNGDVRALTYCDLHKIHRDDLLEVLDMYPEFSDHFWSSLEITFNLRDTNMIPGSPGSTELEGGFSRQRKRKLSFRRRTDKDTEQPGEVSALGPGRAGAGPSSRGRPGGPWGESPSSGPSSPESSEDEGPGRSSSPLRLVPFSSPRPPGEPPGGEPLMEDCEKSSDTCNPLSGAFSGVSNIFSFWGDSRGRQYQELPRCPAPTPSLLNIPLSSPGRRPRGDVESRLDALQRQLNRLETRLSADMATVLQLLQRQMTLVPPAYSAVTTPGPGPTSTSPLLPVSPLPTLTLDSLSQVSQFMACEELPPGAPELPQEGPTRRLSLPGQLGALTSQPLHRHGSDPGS
Sequence of kappa opioid receptor (P41145 whole entry): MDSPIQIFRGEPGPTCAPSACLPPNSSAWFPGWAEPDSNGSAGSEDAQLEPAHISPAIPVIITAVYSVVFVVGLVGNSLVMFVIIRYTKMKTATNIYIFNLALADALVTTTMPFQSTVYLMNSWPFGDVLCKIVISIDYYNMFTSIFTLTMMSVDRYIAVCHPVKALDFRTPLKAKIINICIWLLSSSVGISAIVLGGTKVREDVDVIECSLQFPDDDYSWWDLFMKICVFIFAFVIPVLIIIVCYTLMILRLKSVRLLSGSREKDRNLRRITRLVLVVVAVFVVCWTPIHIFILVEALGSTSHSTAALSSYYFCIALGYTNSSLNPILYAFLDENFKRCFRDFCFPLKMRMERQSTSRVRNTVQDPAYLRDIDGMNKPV

Row | Compound | EC50 (kappa opioid receptor) | cardiovascular side effects (hERG assay) (hERG channel) | abnormal behavioral side effects, such as sedation, hyperactivity and/or hypoactivity [1] | cardiovascular side effects (APD) [2]
1 | O=C(O)C1CCN(c2nc3ccccc3n([C@H]3C[C@H]4CC[C@@H](C3)N4C3CCCCCCC3)c2=O)CC1 [Compound 99, 1-(4-((endo)-8-cyclooctyl-8-azabicyclo[3.2.1]octan-3-yl)-3-oxo-3,4-dihydroquinoxalin-2-yl)piperidine-4-carboxylic acid] | > 100 µM | – | – | –
2 | O=C(O)c1nc2ccccc2n([C@H]2C[C@H]3CCC[C@@H](C2)N3C2CC3CCCC(C3)C2)c1=O (stereo partly drawn) [Compound 362, 4-((endo)-9-((exo)-bicyclo[3.3.1]nonan-3-yl)-9-azabicyclo[3.3.1]nonan-3-yl)-3-oxo-3,4-dihydroquinoxaline-2-carboxylic acid] | – | reduced cardiovascular side effects | reduced abnormal behavioral side effects | reduced cardiovascular side effects
